Reference: US10703755B2, “Substituted purine derivative” (SUMITOMO DAINIPPON PHARMA CO., LTD., priority 2016, dated 2020)

Target: human TLR7 (Homo sapiens (Human), UniProt Q9NYK1)
Experiment: Test for evaluating the inhibition of the activation of human TLR7 (SEAP reporter, TLR7/NF-κB/SEAPorter HEK293 cell)
Format: cell-based
Conditions: R-848 200 nmol/L; for IC50: SEAP reporter; for inhibitory effect against TLR7 in the test for evaluating inhibition of the activation of TLR7: SEAP activity, result in words
Description: As human TLR7 expressing cell line, HEK293 cell line was bought from IMGENEX Corporation (TLR7/NF-ηB/SEAPorter™ HEK293 cell), which is human embryonic kidney cell line and stably expresses full-length human TLR7 gene and secreted alkaline phosphatase (SEAP) reporter gene under the transcriptional control of an NE-ηB response element. The TLR7/NF-ηB/SEAPorter™ HEK293 cell was cultivated with DMEM containing 10% fetal bovine serum (FBS) and 10 μg/mL blasticidin S at 37° C. in the presence of 5% CO2. The TLR7/NF-ηB/SEAPorter™ HEK293 cell was seeded into 96-well microtiter plate at 5×10^4 cell/90 μL/well, and the place was cultivated at 37° C. in a CO2 incubator overnight.
Each compound prepared in the Examples was evaluated by Test 1.

Chain of human TLR7 (Q9NYK1 27-1049): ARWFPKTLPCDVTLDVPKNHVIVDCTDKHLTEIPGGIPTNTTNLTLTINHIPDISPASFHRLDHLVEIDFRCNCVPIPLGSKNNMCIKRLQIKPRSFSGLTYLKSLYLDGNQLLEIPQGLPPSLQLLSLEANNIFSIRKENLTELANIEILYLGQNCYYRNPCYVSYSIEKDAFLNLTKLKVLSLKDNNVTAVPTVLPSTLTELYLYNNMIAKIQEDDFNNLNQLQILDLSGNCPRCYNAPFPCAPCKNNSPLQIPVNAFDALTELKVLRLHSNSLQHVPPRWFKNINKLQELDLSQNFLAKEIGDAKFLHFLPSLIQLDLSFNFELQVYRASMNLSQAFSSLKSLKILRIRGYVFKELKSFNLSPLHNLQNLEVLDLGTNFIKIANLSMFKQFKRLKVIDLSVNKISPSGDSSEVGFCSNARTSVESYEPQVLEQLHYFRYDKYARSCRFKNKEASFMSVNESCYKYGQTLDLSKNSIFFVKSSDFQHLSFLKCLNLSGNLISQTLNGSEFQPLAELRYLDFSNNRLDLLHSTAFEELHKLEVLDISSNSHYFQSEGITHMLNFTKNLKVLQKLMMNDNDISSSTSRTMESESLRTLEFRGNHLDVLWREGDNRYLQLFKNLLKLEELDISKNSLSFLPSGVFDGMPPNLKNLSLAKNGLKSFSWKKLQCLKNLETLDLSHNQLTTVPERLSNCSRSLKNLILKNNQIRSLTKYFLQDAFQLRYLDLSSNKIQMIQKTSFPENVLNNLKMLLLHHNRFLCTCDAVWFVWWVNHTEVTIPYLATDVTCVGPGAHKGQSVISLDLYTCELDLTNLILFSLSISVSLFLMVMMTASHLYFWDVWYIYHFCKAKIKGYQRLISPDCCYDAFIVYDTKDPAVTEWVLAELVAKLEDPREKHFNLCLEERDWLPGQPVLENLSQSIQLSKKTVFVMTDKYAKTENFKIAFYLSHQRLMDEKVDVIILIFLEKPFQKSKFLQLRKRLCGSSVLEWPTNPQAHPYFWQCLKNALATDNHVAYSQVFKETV

| SMILES | IC50 [nM] | inhibitory effect against TLR7 in the test for evaluating inhibition of the activation of TLR7 |
| --- | --- | --- |
| CCCOc1nc(C)c2nc(-c3cncc(C)c3)n(Cc3ccc(O[C@@H]4CN5CCC4CC5)nc3)c2n1 [Example 76] | 400 | – |
| COc1nc(C)c2nc(-c3cncc(F)c3)n(Cc3ccc(O)cc3F)c2n1 [Example 404, 3-Fluoro-4-{[8-(5-fluoropyridin-3-yl)-2-methoxy-6-methyl-9H-purin-9-yl]methyl}phenol] | 846 | – |
| CCOc1nc(C)c2nc(-c3cncc(F)c3)n(Cc3cnc(C4CCN(C)CC4)cc3OC)c2n1 [Example 375] | 199 | – |
| CCCCOc1nc(N)c2nc(-c3cncc(F)c3)n(Cc3ccc(CN4CCOCC4)cc3)c2n1 [Example 83] | 1300 | – |
| CCOc1nc(C)c2nc(-c3cncc(F)c3)n(Cc3ccccc3OC)c2n1 [Example 373] | 209 | – |
| CCOc1nc(C)c2nc(-c3cncc(F)c3)n(Cc3ccc(CN4CCCC4)cc3)c2n1 [Example 263] | 102 | – |
| CCCCOc1nc(N)c2nc(-c3ccccc3)n(Cc3ccccc3)c2n1 [Example 11] | 10900 | – |
| CCOC1CN(Cc2ccc(Cn3c(-c4cncc(F)c4)nc4c(C)nc(OC)nc43)c(F)c2)C1 [Example 261] | 1160 | – |
| CCOc1nc(N)c2nc(-c3cncc(F)c3)n(Cc3cc(F)ccc3F)c2n1 [Example 240] | 357 | – |
| CCOc1nc(N)c2nc(-c3cncc(F)c3)n(Cc3ccc(CN4C[C@@H]5C[C@H]4CN5CC)cc3)c2n1 [Example 128] | 19 | potent inhibitory effect against TLR7 |
| CCCCOc1nc(N)c2nc(-c3cncc(F)c3)n(Cc3cccc(CN4CCOCC4)c3)c2n1 [Example 86] | 300 | – |
| COc1nc(C)c2nc(-c3cncc(F)c3)n(Cc3ccc(OCC4CN(C)C4)cc3F)c2n1 [Example 286, 9-{2-fluoro-4-[(1-methylazetidin-3-yl)methoxy]benzyl}-8-(5-fluoropyridin-3-yl)-2-methoxy-6-methyl-9H-purine] | 26 | potent inhibitory effect against TLR7 |
| CCOc1nc(C)c2nc(-c3cncc(F)c3)n(Cc3ccc(OCC4CN5CCC4CC5)nc3)c2n1 (stereo not drawn) [Example 73] | 160 | – |
| CCOc1nc(N)c2nc(-c3cncc(F)c3)n(Cc3ccc(CN4C[C@@H]5C[C@H]4CN5C4CC4)cc3)c2n1 [Example 130] | 43 | potent inhibitory effect against TLR7 |
| CCN1CCC(c2ccc(Cn3c(-c4cncc(C#N)c4)nc4c(C)nc(OC)nc43)c(F)c2)CC1 [Example 289, 5-{9-[4-(1-ethylpiperidin-4-yl)-2-fluorobenzyl]-2-methoxy-6-methyl-9H-purin-8-yl}pyridine-3-carbonitrile] | 30 | potent inhibitory effect against TLR7 |
| CCOc1nc(C)c2nc(-c3cncc(F)c3)n(Cc3cnn(CC4CCNC4)c3)c2n1 (stereo not drawn) [Example 270] | 272 | – |
| CCN1CCC(c2ccc(Cn3c(-c4cccnc4)nc4c(C)nc(OC)nc43)c(F)c2)CC1 [Example 293, 9-[4-(1-ethylpiperidin-4-yl)-2-fluorobenzyl]-2-methoxy-6-methyl-8-(pyridin-3-yl)-9H-purine] | 18 | potent inhibitory effect against TLR7 |
| COc1nc(C)c2nc(-c3cncc(F)c3)n(Cc3ccc(O[C@H]4CN5CCC4CC5)nc3)c2n1 [Example 70] | 110 | potent inhibitory effect against TLR7 |
| CCOc1nc(C)c2nc(-c3cncc(F)c3)n(Cc3cnn(CCN4CCN(C)CC4)c3)c2n1 [Example 300] | 28 | potent inhibitory effect against TLR7 |
| CCOc1nc(C)c2nc(-c3cncc(F)c3)n(Cc3cnn(CC4CNCCO4)c3)c2n1 (stereo not drawn) [Example 424] | 100 | – |
| COCCOc1nc(N)c2nc(-c3cncc(F)c3)n(Cc3ccc(CN4CCC(F)(F)CC4)cc3)c2n1 [Example 92] | 370 | – |
| COc1nc(C)c2nc(-c3cncc(C)c3)n(Cc3ccc(C4CN5CCC4CC5)cc3F)c2n1 (stereo not drawn) [Example 305, 9-[4-(1-azabicyclo[2.2.2]oct-3-yl)-2-fluorobenzyl]-2-methoxy-6-methyl-8-(5-methylpyridin-3-yl)-9H-purine] | 5 | potent inhibitory effect against TLR7 |
| COc1nc(C)c2nc(-c3cncnc3)n(Cc3ccc(C4CN5CCC4CC5)cc3F)c2n1 (stereo not drawn) [Example 346] | 19 | potent inhibitory effect against TLR7 |

| SMILES | IC50 [nM] | inhibitory effect against TLR7 in the test for evaluating inhibition of the activation of TLR7 |
| --- | --- | --- |
| COc1nc(C)c2nc(-c3cncc(C#N)c3)n(Cc3ccc(C4CN5CCC4CC5)cc3F)c2n1 (single isomer, unassigned) [Example 403, 5-{9-[4-(1-azabicyclo[2.2.2]oct-3-yl)-2-fluorobenzyl]-2-methoxy-6-methyl-9H-purin-8-yl}pyridine-3-carbonitrile] | 21 | potent inhibitory effect against TLR7 |
| CCOc1nc(C)c2nc(-c3cncc(F)c3)n(Cc3ccc(C4CCN(C)C4)cc3)c2n1 (stereo not drawn) [Example 138] | 49 | potent inhibitory effect against TLR7 |
| CCOc1nc(N)c2nc(-c3cncc(COC)c3)n(Cc3ccc(CN(C)C)cc3)c2n1 [Example 34] | 1700 | – |
| COc1nc(C)c2nc(-c3cccnc3)n(Cc3ccc(C4CN5CCC4CC5)c(F)c3)c2n1 (stereo not drawn) [Example 380] | 225 | – |
| CCOc1nc(C)c2nc(-c3cncc(F)c3)n(Cc3cnc(C4CN5CCC4CC5)c(F)c3)c2n1 (stereo not drawn) [Example 383] | 83 | potent inhibitory effect against TLR7 |
| COc1nc(C)c2nc(-c3cncc(F)c3)n(Cc3ccc(CN(C)C)cc3F)c2n1 [Example 259, 1-(3-fluoro-4-{[8-(5-fluoropyridin-3-yl)-2-methoxy-6-methyl-9H-purin-9-yl]methyl}phenyl)-N,N-dimethylmethanamine] | 28 | potent inhibitory effect against TLR7 |
| CCN1C[C@@H]2C[C@H]1CN2Cc1ccc(Cn2c(-c3cncc(C#N)c3)nc3c(C)nc(OC)nc32)c(F)c1 [Example 309, 5-[9-(4-{[(1S,4S)-5-ethyl-2,5-diazabicyclo[2.2.1]hept-2-yl]methyl}-2-fluorobenzyl)-2-methoxy-6-methyl-9H-purin-8-yl]pyridine-3-carbonitrile] | 20 | potent inhibitory effect against TLR7 |
| CCOc1nc(C)c2nc(-c3cncc(F)c3)n(Cc3cnn(CCCN4CCCC4)c3)c2n1 [Example 247] | 85 | – |
| CN(C)Cc1ccc(Cn2c(-c3cncc(F)c3)nc3c(N)nc(OCC(F)F)nc32)cc1 [Example 159] | 930 | – |
| COc1nc(C)c2nc(-c3cncc(F)c3)n(Cc3ccc(Br)cc3F)c2n1 [Example 337] | 1340 | – |
| CCCCOc1nc(N)c2nc(-c3cncc(F)c3)n(Cc3ccccc3)c2n1 [Example 1, 9-Benzyl-2-butoxy-8-(5-fluoropyridin-3-yl)-9H-purine-6-amine] | 2300 | – |
| CCOc1nc(C)c2nc(-c3cncnc3)n(Cc3ccc(CN4C[C@@H]5C[C@H]4CN5C)cc3F)c2n1 [Example 312, 2-ethoxy-9-(2-fluoro-4-{[(1S,4S)-5-methyl-2,5-diazabicyclo[2.2.1]hept-2-yl]methyl}benzyl)-6-methyl-8-(pyrimidin-5-yl)-9H-purine] | 25 | potent inhibitory effect against TLR7 |
| COc1nc(C)c2nc(-c3cncc(F)c3)n(Cc3ccc(C4=CN5CCC4CC5)c(F)c3)c2n1 [Example 357] | 62 | – |
| CCOc1nc(N)c2nc(-c3cncc(F)c3)n(Cc3ccc(CN4CC(C(F)F)C4)cc3)c2n1 [Example 105] | 59 | potent inhibitory effect against TLR7 |
| COCCOc1nc(N)c2nc(-c3cncc(F)c3)n(Cc3ccc(CN(C)C)cc3)c2n1 [Example 87] | 2500 | – |
| COc1nc(C)c2nc(-c3cccnc3)n(Cc3ccc(C4CCNCC4)cc3F)c2n1 [Example 345] | 36 | potent inhibitory effect against TLR7 |
| COCC(C)Oc1nc(N)c2nc(-c3cncc(F)c3)n(Cc3ccc(CN(C)C)cc3)c2n1 (stereo not drawn) [Example 158, 9-{4-[(Dimethylamino)methyl]benzyl}-8-(5-fluoropyridin-3-yl)-2-[(1-methoxypropan-2-yl)oxy]-9H-purine-6-amine] | 13700 | – |
| CCOc1nc(N)c2nc(-c3cncc(F)c3)n(Cc3ccc(O[C@@H]4CN5CCC4CC5)nc3)c2n1 [Example 40] | 120 | – |
| CCCCOc1nc(N)c2nc(-c3cncc(C)c3)n(Cc3cccc(CN(C)C)c3)c2n1 [Example 85] | 800 | – |
| CCOc1nc(N)c2nc(-c3cncc(F)c3)n(Cc3ccccc3F)c2n1 [Example 44] | 750 | – |
| COc1nc(C)c2nc(-c3ccncc3)n(Cc3ccc(C4CN5CCC4CC5)cc3F)c2n1 (stereo not drawn) [Example 347] | 35 | potent inhibitory effect against TLR7 |
| COc1nc(C)c2nc(-c3cncc(C#N)c3)n(Cc3ccc(O[C@H]4C[C@H]5CC[C@@H](C4)N5)cc3F)c2n1 [Example 436] | 37 | potent inhibitory effect against TLR7 |
| COc1nc(C)c2nc(-c3cncc(C#N)c3)n(Cc3ccc(C4CCN(C)CC4)cc3F)c2n1 [Example 288] | 62 | potent inhibitory effect against TLR7 |
